Source: ChEMBL document CHEMBL4414634, “Alternatone A, an Unusual Perylenequinone-Related Compound from a Soft-Coral-Derived Strain of the Fungus Alternaria alternata” (J Nat Prod, 2019)
Active and inactive are the calls of the source. The rule behind the calls is not given here.

Legend:
Assay type in all cases: functional, cell-based
[1] = tested on: HeLa; test: Antiproliferative activity against human HeLa cells assessed as reduction in cell viability by MTT assay
[2] = tested on: A549; test: Antiproliferative activity against human A549 cells assessed as reduction in cell viability by SRB assay
[3] = tested on: HCT-116; test: Antiproliferative activity against human HCT116 cells assessed as reduction in cell viability by SRB assay

Row | Structure (SMILES) | Activity [1] | Activity [2] | Activity [3] | IC50 [1] | IC50 [2] | IC50 [3]
1 | O=C1C[C@@H]2[C@@H]3C(=O)c4c(O)cccc4[C@@H]([C@@H]3O)[C@@H]2c2cccc(O)c21 | inactive | inactive | inactive | – | – | –
2 | O=C1C[C@H](O)[C@@H]2c3c(ccc(O)c31)-c1ccc(O)c3c1[C@@]2(O)CCC3=O | inactive | inactive | inactive | – | – | –
3 | O=C1C[C@@H](O)[C@@H]2c3ccc(O)c4c3[C@@H](c3ccc(O)c1c32)[C@H](O)CC4=O | inactive | inactive | inactive | – | – | –
4 | O=C1C[C@H](O)[C@@H]2c3c(ccc(O)c31)-c1ccc(O)c3c1[C@@]2(O)C=CC3=O | – | – | – | 3100 nM | 2600 nM | 2400 nM
